Results on 1 compound are retold here after US11028061B2, “Modulators of myocyte lipid accumulation and insulin resistance and methods of use thereof” (Sanford Burnham Prebys Medical Discovery Institute, priority 2015, dated 2021).

The subject of data set [1] is ARRDC4. The experiment in a line: ARRDC4 expression by quantitative RT-PCR in human myotubes. In kind it is cell-based. The note with it: 24 hours. How it is done: FIGS. 4A-C show downregulation of TXNIP and ARRDC4 expression by SBI-477. (FIG. 4A) TXNIP and ARRDC4 mRNA levels as determined by quantitative RT-PCR in human myotubes treated with SBI-477 (10 μM) or DGAT1 inhibitor (DGATi, […]) for 24 hours in the absence or presence of 100 μM oleate (n=4). Expression is shown relative to vehicle/BSA treatment. (FIG. 4B) TXNIP gene expression following exposure to a dose range of SBI-477 for 24 hours (n=4). (FIG. 4C) Left, Effect of SBI-477 on TXNIP protein levels as determined by western blot analysis by SBI-477. Right, Quantitation of the TXNIP western blot data is shown (n=5). *p<0.05 vs. Vehicle/BSA control, †p<0.05 vs. Vehicle/oleate by one-way ANOVA with Bonferroni post hoc test. The data are shown as mean±SD.
Total RNA was isolated using RNeasy Mini Kit (Qiagen) according to the manufacturer's instructions. cDNA was synthesized using the Affinity Script cDNA Synthesis Kit (Stratagene) with 0.5 μg of total RNA. PCR reactions were performed in triplicate […] Roche LightCycler® 480 Instrument II) with specific primers for each gene.

For data set [2], the system named is primary murine skeletal myocytes. The experiment in a line: TAG accumulation in primary murine skeletal myocytes. In kind it is cell-based. Particulars: Mus musculus; primary murine skeletal myocytes; read-out: Activity Score (IC50), triacylglyceride (TAG) accumulation.
Data set [3] can be described thus: Plasma concentration in high fat diet mice. The format is in vivo. Particulars: male, C57BL/6J, mouse, sc, 4 hours following the final dose, 50 mg/kg s.c. once daily for 7 days. As to the method:
(§1) All animal studies were performed in accordance with the National Institute of Health guidelines for humane treatment of animals and approved by the IACUC of the Sanford Burnham Prebys Medical Discovery Institute at Lake Nona. Six week old male C57BL/6J mice were obtained from Jackson Laboratory (stock number 000664) and acclimated for 1 week prior to study. Mice were maintained on standard chow or a 60% high fat diet (Research Diets, USA) for 8 weeks. SBI-993 was dissolved in a vehicle containing 2% DMSO, 2% Tween-80, and 96% water (pH9.0). Seven weeks after HFD feeding, mice were subcutaneously injected with SBI-993 (50 mg/kg mouse body weight) once daily for 7 days. Each group contains 6-10 mice and three independent experiments were conducted.
(§2) To determine if the effects conferred by SBI-477 observed in myocytes in culture are relevant in vivo, studies were conducted in C57BL/6 mice with diet-induced obesity. […] Mice were fed a 60% high fat diet (HFD) for 8 weeks resulting in significant weight gain (FIG. 6I). During the final week of HFD feeding, SBI-993 or vehicle control was administered as a once daily dose (50 mg/kg s.c.) for 7 days.

In data set [4] the test system is human skeletal myotubes. The experiment in a line: Triglyceride accumulation in oleate-loaded human skeletal myotubes. In kind it is cell-based. How it is done:
Human skeletal myotubes were differentiated for 8 days. On day 7, 100 μM of oleic acid complexed to fatty acid-free BSA was added to the cells with the indicated concentration of test compound for 24 hours. Following incubation with oleate and compound, cells were formaldehyde fixed and stained with AdipoRed™ (Lonza). Triglyceride accumulation was measured using signal intensity at excitation 540/emission 590 nm (Bio-Tek Instruments, Inc.). Dose response curves were generated in Prism 6 (GraphPad Software). EC50 values were calculated using non-linear regression analysis. For biochemical measurement of triglyceride, human skeletal myotubes were incubated with oleate-BSA and test compound as described above. After 24 hour incubation, cells were collected with a lysis buffer containing 0.1% IGEPAL CA-630 (Sigma-Aldrich) in PBS. The harvested cells were sonicated for 5 seconds and then centrifuged at 10,000×g for 10 minutes at 4° C. The supernatant was removed and stored on ice. TAG levels were quantified using Infinity™ Triglycerides Liquid Stable Reagent (Thermo Scientific), following the manufacturer's instructions for colorimetric assay.
Student's t-test, Mann Whitney test, one-way ANOVA with Bonferroni post hoc test, or two-way ANOVA with Tukey post hoc test was performed to determine statistical significance as indicated. […]

Data set [5] has as its system C57BL/6 mice with diet-induced obesity. The experiment in a line: Diet-induced obesity (60% high fat diet) mouse study. In kind it is in vivo. Particulars: HFD mice. How it is done: Following a 5 hour fast, a blood sample was obtained from the tail tip for the measurement of baseline glucose using a hand-held glucometer (Accu-Chek Aviva Plus, Roche). A bolus of glucose (1 g/kg) was then administered via i.p. injection. Blood samples were obtained at 5, 15, 30, 60 and 90 minutes following the glucose bolus for measurement of blood glucose. For detection of insulin signaling, mice were fasted for 5 hours on the last day of the study. Gastrocnemius skeletal muscle and liver tissues were harvested 10 minutes after an acute insulin administration (1.5 U/kg, i.p.) and immediately snap frozen. The tissue samples were homogenized in RIPA buffer containing 1% NP-40, 5 mM Na4P2O7, 1 mM EDTA, 20 mM NaF, 2 mM Na3VO4, 1× Complete protease inhibitor (Roche) and 1 mM phenylmethylsulfonyl fluoride. Western blot analysis for levels of phospho-Akt (S473) and total Akt was then performed.
as §1, §2

Setting [6] is: muscle and liver, 50 mg/kg s.c. 7 days.

One may read the IC50 as the point on the concentration scale where inhibition reaches its midpoint.

The structures appear in SMILES notation.

As for `COc1ccc(-c2csc(NC(=O)c3ccc(NCC(=O)N4CCOCC4)cc3)n2)cc1` [Cpd. 66, N-(4-(4-methoxyphenyl)thiazol-2-yl)-4-((2-morpholino-2-oxoethyl)amino)benzamide], the ARRDC4 expression result in data set [1] is on record as “to a similar degree as SBI-477”. Also, in data set [2], the IC50 is under 1000 nM. This compound also showed a concentration at 4 h in data set [3] of 4.97 ± 0.97 µM. The “Potency compared with SBI-477 (inhibition of triglyceride accumulation, FIG. 6H)” value in data set [4] is on record as “improved potency”. In addition, in data set [5] (50 mg/kg s.c. 7 days), the “Glucose tolerance (1 g/kg glucose, i.p.)” value is listed as “improved glucose tolerance”; the Hepatic steatosis entry is “substantially ameliorated”; the “TAG levels in skeletal muscle” value is recorded as “significantly reduced”. For the same compound, in data set [5] (50 mg/kg s.c. once daily for 7 days), the “Body weight compared to vehicle” value is “small but significant reduction”. Also, the Food intake entry in data set [5] (data not shown) was “not due to reduced food intake”. Further, in data set [5] (liver, 1 week administration), the “Occupation of ChREBP and MondoA on Txnip and Pklr gene promoters (ChIP)” value was “reduced in liver”. Besides, the “Insulin signaling (phosphorylated Akt S473) after acute insulin challenge” value in data set [5] (muscle and liver) was “improved insulin signaling”. In data set [5] (setting [6]), the “Expression of TAG synthesis and lipogenic genes” value is on record as “reduced the expression”; the “Txnip and Arrdc4 expression” value was “reduced Txnip and Arrdc4 expression”.
